From US7947701B2, “Dual molecules containing peroxy derivative, the synthesis and therapeutic applications thereof” (Sanofi-Aventis, priority 2003, dated 2011)
Where two headings read alike, the source gives them in different places.

Legend:
[1] = tested on: P. falciparum FcM29-Cameroon strain; test: Antimalarial chemosensitivity test (radioactive micromethod, tritiated hypoxanthine incorporation) on FcM29-Cameroon strain; assay type: cell-based; details: Plasmodium falciparum, Erythrocyte, read-out: IC50 (concentration required to inhibit parasite growth by 50%)
Experimental: (§1) The P. falciparum strains are cultured continuously according to the method of Trager and Jensen (Science, 1976, 193, 673-675): the parasites are maintained in human red blood cells (O±), diluted to a blood parasite level of 2% in RPMI 1640 medium supplemented with 25 mM of Hepes+24 mM NaHCO3+2 mM L-glutamine and with 5% of human serum of all groups. The parasites are incubated at 37° C. in a humid atmosphere and at 5% CO2.
The antimalarial activity tests are carried out according to the radioactive micromethod of Desjardins et al. (Antimicrob. Agents Chemother., 1979, 16, 710-718). Each molecule is tested in triplicate. The assays are carried out in 96-well microplates. The P. falciparum strains are cultured in solutions of RPMI 1640 supplemented with 5% of human serum with a haematocrit at 2% and a blood parasite level at 1.5%. For each assay, the parasites are incubated with decreasing concentrations of the test compounds for 48 h at 37° C., in a humid atmosphere and at 5% CO2. Artemisinin and chloroquine diphosphate are used as reference molecules. The first dilution of the test compounds is effected at 1 mg/ml in dimethyl sulphoxide. The dilution range for the successive daughter solutions is also prepared in dimethyl sulphoxide. Each daughter dilution is then diluted to 1/50th in RPMI 1640 supplemented with 5% of human serum, all the dilutions being carried out at 37° C. These dilutions are then added to the parasites in culture in the microplates. After addition of the test compound, the parasites are cultured in RPMI 1640 containing 5% of human serum and 1% of dimethyl sulphoxide. The parasite growth is measured by incorporation of tritiated hypoxanthine (added 24 h after the beginning of exposure to the test compound) and compared to the incorporation in the absence of the test compound (taken as 100%). The IC50 values (concentrations required to inhibit parasite growth by 50%) are determined by plotting the percentage inhibition as a function of the logarithm of the dose, using the GraphPad Prism 4® processing software (GraphPad Software Inc., 5755 Oberlin Drive, #110, San Diego, Calif. 92121, USA).

[2] = tested on: P. falciparum FcB1-Columbia strain; test: Antimalarial chemosensitivity test (radioactive micromethod, tritiated hypoxanthine incorporation) on FcB1-Columbia strain; assay type: cell-based; details: Plasmodium falciparum, read-out: IC50 (concentration required to inhibit parasite growth by 50%)
Experimental: as §1
The antimalarial activity tests are carried out according to the radioactive micromethod of Desjardins et al. (Antimicrob. Agents Chemother., 1979, 16, 710-718). Each molecule is tested in triplicate. The assays are carried out in 96-well microplates. The P. falciparum strains are cultured in solutions of RPMI 1640 supplemented with 5% of human serum with a haematocrit at 2% and a blood parasite level at 1.5%. For each assay, the parasites are incubated with decreasing concentrations of the test compounds for 48 h at 37° C., in a humid atmosphere and at 5% CO2. Artemisinin and chloroquine diphosphate are used as reference molecules. The first dilution of the test compounds is effected at 1 mg/ml in dimethyl sulphoxide. […] The parasite growth is measured by incorporation of tritiated hypoxanthine (added 24 h after the beginning of exposure to the test compound) and compared to the incorporation in the absence of the test compound (taken as 100%). […]

IC50 ([2]; Erythrocyte, FcB1-Columbia strain (moderately chloroquine resistant), in human red blood cells, 48 h incubation) [nM]	IC50 ([1]; FcM29-Cameroon strain (very strongly chloroquine resistant), in human red blood cells, 48 h incubation) [nM]	Compound	IC50 ([1]; 48 h) [nM]	IC50 ([2]; FCB1, Erythrocyte, 48 h) [nM]
–	–	Clc1ccc2c(NCCN3CCC4(CC3)OOC3(O4)C4CC5CC(C4)CC3C5)ccnc2c1 (stereo not shown) [PA1021, 7-Chloro-N-[2-(1H-dispiro[piperidine-4,3′-[1,2,4]trioxolane-5′,2″-tricyclo[3.3.1.1^3,7]decan]-1-yl)ethyl]quinolin-4-amine]	6	–
–	–	CN(C)c1ccc2nccc(NCCN3CCC4(CC3)OOC3(O4)C4CC5CC(C4)CC3C5)c2c1 (stereo not shown) [PA1026, N^4-[2-(1H-Dispiro[piperidine-4,3,-[1,2,4]trioxolane-5′,2″-tricyclo[3.3.1.1^3,7]decan]-1-yl)ethyl]-N^6,N^6-dimethylquinoline-4,6-diamine]	4.4	–
11	5	C[C@@H]1CC[C@H]2[C@@H](C)C(=O)O[C@@H]3O[C@@]4(C)CC[C@@H]1[C@]32OO4 [artemisinin]	–	–
–	–	CCN(CC)CCCC(C)Nc1ccnc2cc(Cl)ccc12 (stereo not shown) [chloroquine]	258	66
–	–	CC(C)C1=C[C@H]2OC3(CCN(CCCNc4ccnc5cc(Cl)ccc45)CC3)OO[C@@]2(C)CC1 [PA1011]	13	–
